pIC50: −log10 of the molar value.
Legend:
[1] = test system: AGS cells (KRAS G12D); experiment: Cell viability assay (Cell Counting Kit-8, 3-day); format: cell-based, human; conditions: Homo sapiens, 72 h, 72 hrs incubation
Experimental: (§1) The purpose of this cellular assay was to determine the effects of test compounds on the proliferation of human cancer cell lines NCI-H358 (ATCC-CRL5807) cells, AGS (ATCC-CRL-1739) cells, SW620 (ATCC-CCL-227) over a 3-day treatment period by quantifying the amount of NADPH present at endpoint using Cell Counting Kit-8.
(§2) Cells were seeded at 5,000 cells/well (NCI-H358), 2,000 cells/well (AGS) 2,000 cells/well (SW620) in 96-well assay plates (Corning-3699) and incubated overnight. On the day of the assay, diluted compounds were then added in a final concentration of 0.5% DMSO. After 72 hrs incubation, a tenth of the volume of cell counting kit 8 (Dnjindo-CK04) was added into each well. Read the signal (OD450 minus OD650) using EnVision after 2 hrs incubation. IC50 was determined by fitting a 4-parameter sigmoidal concentration response model.

[2] = test system: NCI-H358 cells (KRAS G12C); experiment: Cell viability assay (Cell Counting Kit-8, 3-day); format: cell-based, human; conditions: Homo sapiens, NCI-H358, 72 h, NCI-H358, 72 hrs incubation
Experimental: as §1, §2

[3] = test system: SW620 cells (KRAS G12V); experiment: Cell viability assay (Cell Counting Kit-8, 3-day); format: cell-based, human; conditions: Homo sapiens, SW-620; SW620, 72 hrs incubation
Experimental: as §1, §2

[4] = test system: phosphorylation of ERK, KRAS G12C in NCI-H358 cells; experiment: pERK inhibition assay; format: cell-based; conditions: Homo sapiens, NCI-H358, 4 h
Experimental: (§3) This assay is to measure the ability of test compounds in inhibiting the phosphorylation of ERK, the downstream signaling of KRAS G12C in NCI-H358 cells, KRAS G12D in AGS cells, and KRAS G12V in SW620. NCI-H358 (ATCC-CRL5807) cells, AGS (ATCC-CRL-1739) cells, SW620 (ATCC-CCL-227) cells were all grown and maintained using RPMI-1640 medium (Thermo Fisher Scientific) with 10% fetal bovine serum and 1% penicillin/streptomycin. On the day prior to compound addition, cells were plated in tissue culture-treated 96 well plates (Corning-3699) at a density of 30,000 cell/well, 20,000 cell/well, 30,000 cell/well for NCI-H358, AGS and SW620 respectively, and allowed for attachment overnight. Diluted compounds were then added in a final concentration of 0.5% DMSO. After 4 hours of incubation, the medium was removed, 100 μL of 4% formaldehyde was added, and the assay plates were incubated at room temperature for 20 minutes. The plates were then washed once with phosphate buffered saline (PBS), and permeabilized with 100 μL of chilled methanol for 10 minutes. Non-specific antibody binding to the plates was blocked using 50 μL 1X BSA blocking buffer (Thermo-37520, 10-fold dilution by Phosphate-Buffered Saline Tween (PBST) for at least 1 hour at room temperature.
(§4) The amount of phosphor-ERK was determined using an antibody specific for phosphorylated form of ERK. Primary antibody (PERK, CST-4370, Cell Signaling Technology) was diluted 1:300 in blocking buffer, with 50 μL aliquoted to each well, and incubated overnight at 4° C. Cells was washed five times for 5 minutes with PBST. Secondary antibody (HRP-linked anti-rabbit IgG, CST-7074, Cell Signaling Technology) was diluted 1:1000 in blocking buffer, and 50 μL was added to each well and incubated 1-2 hrs at room temperature. Cells was washed […] for 5 minutes with PBST, 100 μL TMB ELISA substrate (abcam-ab171523) were added and gently shake for 20 minutes. 50 μL stop solution (abcam-ab 171529) were added, and then read the signal (OD450) by EnVision.
(§5) IC50 was determined by fitting a 4-parameter sigmoidal concentration response model.

[5] = test system: phosphorylation of ERK, KRAS G12D in AGS cells; experiment: pERK inhibition assay; format: cell-based; conditions: Homo sapiens, AGS, 4 h
Experimental: as §3, §4, §5

[6] = test system: phosphorylation of ERK, KRAS G12V in SW620; experiment: pERK inhibition assay; format: cell-based; conditions: Homo sapiens, SW-620, 4 h, SW620 cells
Experimental: as §3, §4, §5

| pIC50 [1] | pIC50 [2] | pIC50 [3] | pIC50 [4] | pIC50 [5] | pIC50 [6] | Structure (SMILES) |
| --- | --- | --- | --- | --- | --- | --- |
| 7.65 | 8.15 | 8.82 | 8.92 | 8.03 | 8.89 | CO[C@@H](C)c1ncc(N2CCN(C)CC2)cc1-c1c2c3cc(cc4c3n1CCC4)-c1csc(n1)C[C@H](NC(=O)[C@@H]1C[C@H]1c1ccccc1F)C(=O)N1CCC[C@H](N1)C(=O)OCC(C)(C)C2 [Example 28, (1R,2R)-2-(2-fluorophenyl)-N-[(7S,13S)-(20M)-20-[2-[(1S)-1-methoxyethyl]-5-(4-methylpiperazin-1-yl)-3-pyridyl]-17,17-dimethyl-8,14-dioxo-15-oxa-4-thia-9,21,30,31-tetrazahexacyclo[23.3.1.1^2,5.1^9,13.0^19,27.0^21,26]hentriaconta-1 (28),2,5 (31),19,25 (29),26-hexaen-7-yl]cyclopropanecarboxamide] |
| 7.47 | 7.77 | 8.51 | 8.68 | 8.04 | 8.85 | CO[C@@H](C)c1ncc(N2CCN(CC(F)(F)F)CC2)cc1-c1c2c3cc(cc4c3n1CCO4)-c1csc(n1)C[C@H](NC(=O)[C@H]1C[C@@H]1c1ccccc1)C(=O)N1CCC[C@H](N1)C(=O)OCC(C)(C)C2 (atropisomer, axis not shown; (M)) [Example 44, (1S,2S)-N-[(7S,13S)-(20M)-20-[2-[(1S)-1-methoxyethyl]-5-[4-(2,2,2-trifluoroethyl)piperazin-1-yl]-3-pyridyl]-17,17-dimethyl-8,14-dioxo-15,24-dioxa-4-thia-9,21,30,31-tetrazahexacyclo[23.3.1.1^2,5.1^9,13.0^19,27.0^21,26]hentriaconta-1 (29),2,5 (31),19,25,27-hexaen-7-yl]-2-phenyl-cyclopropanecarboxamide] |
| 7.49 | 8.09 | 8.62 | 9.05 | 8.04 | 9.00 | CO[C@@H](C)c1ncc(N2CCOCC2)cc1-c1c2c3cc(cc4c3n1CCC4)-c1csc(n1)C[C@H](NC(=O)[C@H]1C[C@@H]1c1ccccc1)C(=O)N1CCC[C@H](N1)C(=O)OCC(C)(C)C2 (atropisomer, axis not shown; (M)) [Example 46, (1S,2S)-N-[(7S,13S)-(20M)-20-[2-[(1S)-1-methoxyethyl]-5-morpholino-3-pyridyl]-17,17-dimethyl-8,14-dioxo-15-oxa-4-thia-9,21,30,31-tetrazahexacyclo[23.3.1.1^2,5.1^9,13.0^19,27.0^21,26]hentriaconta-1 (29),2,5 (31), 19,25,27-hexaen-7-yl]-2-phenyl-cyclopropanecarboxamide] |

| Structure (SMILES) | pIC50 [1] | pIC50 [2] | pIC50 [3] | pIC50 [4] | pIC50 [5] | pIC50 [6] |
| --- | --- | --- | --- | --- | --- | --- |
| CO[C@@H](C)c1ncc(N2CCOCC2)cc1-c1c2c3cc(cc4c3n1C(C)(C)CC4)-c1csc(n1)C[C@H](NC(=O)[C@H]1C[C@@H]1C)C(=O)N1CCC[C@H](N1)C(=O)OCC(C)(C)C2 [Example 125, (1S,2S)-N-[(7S,13S)-(20M)-20-[2-[(1S)-1-methoxyethyl]-5-morpholino-3-pyridyl]-17,17,22,22-tetramethyl-8,14-dioxo-15-oxa-4-thia-9,21,30,31-tetrazahexacyclo[23.3.1.1^2,5.1^9,13.0^19,27.0^21,26]hentriaconta-1 (29),2,5 (31),19,25,27-hexaen-7-yl]-2-methyl-cyclopropanecarboxamide] | 5.33 | 5.96 | 6.68 | 6.52 | 6.32 | 7.08 |

— US20240417410A1, “TRICYCLIC COMPOUNDS FOR THE TREATMENT OF CANCER” (Hoffmann-La Roche Inc., priority 2023, published 2024)
